Data: the supplement of paper PMC10307832

Key:
Assay in all cases: relative viability (nuclei count vs DMSO), 5 days (fraction); higher = more cells survive
Vemurafenib + Luminespib = compound: CCCS(=O)(=O)Nc1ccc(F)c(C(=O)c2c[nH]c3ncc(-c4ccc(Cl)cc4)cc23)c1F [Vemurafenib] + CCNC(=O)c1noc(-c2cc(C(C)C)c(O)cc2O)c1-c1ccc(CN2CCOCC2)cc1 [Luminespib] (partner 0.01 µM)
Procedure, shortened: (§1)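 For relative viability, nuclei counts in treated wells were divided by those in vehicle wells. Lung cancer cell lines had been pin-tool dosed in 1536-well plates the day after seeding and cultured for 5 days, then fixed and stained in one step (final 0.05% Triton X-100, 1% formaldehyde, 1 ug/ml Hoechst) and imaged at 4×. Doses were one drug alone or a fixed anchor-drug dose plus five library-drug doses (not always all listed) in √10 steps, and values are duplicate-plate medians.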

Alpelisib + Tozasertib = compound: Cc1nc(NC(=O)N2CCC[C@H]2C(N)=O)sc1-c1ccnc(C(C)(C)C(F)(F)F)c1 [Alpelisib] + Cc1cc(Nc2cc(N3CCN(C)CC3)nc(Sc3ccc(NC(=O)C4CC4)cc3)n2)n[nH]1 [Tozasertib] (partner 0.1 µM)
Procedure, shortened: as §1

Alpelisib + Crizotinib = compound: Cc1nc(NC(=O)N2CCC[C@H]2C(N)=O)sc1-c1ccnc(C(C)(C)C(F)(F)F)c1 [Alpelisib] + C[C@@H](Oc1cc(-c2cnn(C3CCNCC3)c2)cnc1N)c1c(Cl)ccc(F)c1Cl [Crizotinib] (partner 1 µM)
Procedure, shortened: as §1

OSI-027 + Dasatinib = compound: COc1cccc2cc(-c3nc([C@H]4CC[C@H](C(=O)O)CC4)n4ncnc(N)c34)[nH]c12 [OSI-027] + Cc1nc(Nc2ncc(C(=O)Nc3c(C)cccc3Cl)s2)cc(N2CCN(CCO)CC2)n1 [Dasatinib] (partner 0.075 µM)
Procedure, shortened: as §1

Cell Line	relative viability (Vemurafenib + Luminespib; first compound 0.03162 µM)	relative viability (Vemurafenib + Luminespib; first compound 0.1 µM)	relative viability (Vemurafenib + Luminespib; first compound 1 µM)	relative viability (Alpelisib + Tozasertib; first compound 0.04 µM)	relative viability (Alpelisib + Tozasertib; first compound 0.1265 µM)	relative viability (Alpelisib + Tozasertib; first compound 0.4 µM)	relative viability (Alpelisib + Tozasertib; first compound 1.265 µM)	relative viability (Alpelisib + Tozasertib; first compound 4 µM)	relative viability (Alpelisib + Crizotinib; first compound 0.04 µM)	relative viability (Alpelisib + Crizotinib; first compound 0.1265 µM)	relative viability (Alpelisib + Crizotinib; first compound 0.4 µM)	relative viability (Alpelisib + Crizotinib; first compound 1.265 µM)	relative viability (Alpelisib + Crizotinib; first compound 4 µM)	relative viability (OSI-027 + Dasatinib; first compound 0.01 µM)	relative viability (OSI-027 + Dasatinib; first compound 0.03162 µM)	relative viability (OSI-027 + Dasatinib; first compound 0.1 µM)	relative viability (OSI-027 + Dasatinib; first compound 0.3162 µM)	relative viability (OSI-027 + Dasatinib; first compound 1 µM)	relative viability (Vemurafenib + Luminespib; first compound 0.3162 µM)
NCI-H838	0.291	0.349	0.352	0.279	0.25	0.277	0.215	0.247	0.774	0.768	0.932	0.73	0.772	0.283	0.276	0.224	0.227	0.239	
COR-L23	0.571	0.744	0.688	0.205	0.208	0.218	0.19	0.13	0.622	0.613	0.698	0.478	0.459	0.513	0.422	0.424	0.386	0.208	0.632
EMC-BAC-2	1.08	1.03	1.22	0.294	0.255	0.307	0.242	0.242	0.752	0.778	0.753	0.608	0.496	0.296	0.311	0.308	0.249	0.225	1.19
NCI-H3122	0.138	0.123	0.101	0.334	0.387	0.35	0.255	0.263	0.27	0.308	0.227	0.196	0.2	0.831	0.844	0.923	0.631	0.391	0.0825
NCI-H2023	0.731	0.628	0.766	0.36	0.35	0.348	0.215	0.166	0.53	0.565	0.476	0.389	0.257	0.588	0.621	0.505	0.338	0.192	0.827
ChaGo-K-1	0.555	0.45	0.551	0.202	0.202	0.211	0.194	0.197	1.13		1.15	0.988	0.841	0.515	0.618	0.5	0.549	0.474	0.548
NCI-H1944	0.665	0.601	0.663	0.251	0.226	0.267	0.218	0.171	1.01	1.24	1.14	0.725	0.523	0.192	0.204	0.191	0.178	0.162	0.736
H3255	0.837		0.809	0.702	0.683	0.767	0.431	0.438	0.85	1.05	1.16	0.631	0.675	0.291	0.377	0.388	0.292	0.217	0.824
NCI-H2087	0.166	0.185	0.162	0.256	0.294	0.305	0.218	0.167	0.781	0.892	0.958	0.732	0.658	0.856	0.937	0.923	0.611	0.453	
RERF-LC-KJ	1.26	0.991	1.31	0.466	0.455	0.572	0.363	0.349	0.76	0.77	0.83	0.787	0.741	0.835	0.776	0.748	0.557	0.349	1.26
NCI-H2228	0.148	0.161	0.172	0.224	0.173	0.231	0.204	0.139	0.514	0.402	0.403	0.303	0.304	0.506	0.467	0.568	0.445	0.24	0.19
